Patent publication US20030207813A1, “Retroviral protease inhibitor combinations” (priority 1995, published 2003)
Values after ≈ are worked out from the molar mass of the structure shown. Like-named read-outs stand apart in the source and are kept apart here.

How the values were obtained:
HIV-1NL4-3 = test: microbe, parasite or virus in culture; assay type: cell-based; conditions: Human immunodeficiency virus 1, NL4; for EC90: Table 7, read-out: Virus Isolate (EC90 nM) NL4; for EC50: read-out: Virus Isolate (EC50 nM) NL4
Source text: (§1) RF represents the HIV-1 strain HIV-LRF and RFR represents a mixture of resistant strains obtained by selection of RF against the compound of Example 1. […] RFR2 represents a mixture of resistant strains obtained by cloning RFR by three rounds of growth at limiting dilution. […] RFRR represents a mixture of resistant strains obtained by selection of RF against the compounds of Examples 1 and 2 and then cloning by three rounds of growth at limiting dilution. […] SF162 represents the HIV-1 strain SF-162 and SF162R represents a mixture of resistant strains obtained by selection of SF162 against the compound of Example 1. […] 89-959 represents the HIV-1 strain 89-959 and 89-959R represents a mixture of resistant strains obtained by selection of 89-959 against the compound of Example 2. […] NL4 represents the HIV-1 strain HIV-1NL4-3. NL4(G48V) represents a strain having a synthetically generated site-directed mutation in the protease from glycine to valine at amino acid position number 48. NL4(I84V) represents a strain having a synthetically generated site-directed mutation in the protease from isoleucine to valine at amino acid position number 84. NL4(R8Q,M46I) represents a strain having synthetically generated site-directed mutations in the protease from arginine to glutamine at amino acid position number 8 and methionine to isoleucine at amino acid position number 46.

NL4(I84V) = test: Viral isolate resistance assay per Markowitz et al., NL4(I84V); assay type: cell-based, HIV-1; conditions: Human immunodeficiency virus 1, Table 7
Source text: as §1

[1] = tested on: RFRR (resistant strains selected from RF against Examples 1 and 2); test: CEM-T4 cell infection assay, reverse transcriptase readout, resistant isolate RFRR; assay type: cell-based, HIV-1; conditions: Human immunodeficiency virus 1, 168 h, Table 6, CEM-T4 cells, 7 days, read-out: Virus Isolate (EC50 ng/mL) RFRR
Source text: (§2) RF represents the HIV-1 strain HIV-LRF and RFR represents a mixture of resistant strains obtained by selection of RF against the compound of Example 1. RFR comprises a mixture of viral strains having protease genotypes of G48V (14/40 clones); G48V, V82A (18/40 clones); G48V, L90S (2/40 clones); G48V, 154T, V82A (1/40 clones); G48M (1/40 clones); G48V, Q61H (1/40 clones); V13I, G48V (1/40 clones); G48V, F53L, V82A (1/40 clones); and G48V, V82A, C95Y (1/40 clones). RFR2 represents a mixture of resistant strains obtained by cloning RFR by three rounds of growth at limiting dilution. RFR2 comprises a mixture of viral strains having protease genotypes of G48V, V82A (13/15 clones); G17E, G48V, V82A (1/15 clones); and G48V, V82A, N37D, N88D (1/15 clones). RFRR represents a mixture of resistant strains obtained by selection of RF against the compounds of Examples 1 and 2 and then cloning by three rounds of growth at limiting dilution. RFRR comprises a mixture of viral strains having protease genotypes of G48V, 154T, L63P, V82A (7/9 clones); G48V, 154T, L63P, V82A, N88S (1/9 clones); and G48V, 154T, L63P, G73M, V82A (1/9 clones). SF162 represents the HIV-1 strain SF-162 and SF162R represents a mixture of resistant strains obtained by selection of SF162 against the compound of Example 1. SF162R comprises a mixture of viral strains having protease genotypes of M461, F53L, L63P, A71V, N88D (2/3 clones); and M46I, F53L, L63P, A71V, N88D, Q92R (1/3 clones). 89-959 represents the HIV-1 strain 89-959 and 89-959R represents a mixture of resistant strains obtained by selection of 89-959 against the compound of Example 2. 89-959R comprises a mixture of viral strains having protease genotypes of N88S (4/5 clones); and D25N, T26A, D30N, D37N, R41K, G73D, R87K, N88S (1/4 clones). NL4 represents the HIV-1 strain HIV-1NL4-3. NL4(G48V) represents a strain having a synthetically generated site-directed mutation in the protease from glycine to valine at amino acid position number 48. NL4(I84V) represents a strain having a synthetically generated site-directed mutation in the protease from isoleucine to valine at amino acid position number 84. NL4(R8Q,M46I) represents a strain having synthetically generated site-directed mutations in the protease from arginine to glutamine at amino acid position number 8 and methionine to isoleucine at amino acid position number 46. NL4(P22-538) represents a mixture of resistant strains obtained by selection of HIV-1NL4-3 against the compound of Example 10 after 22 passages comprising protease genotypes M46I, L63P, A71V, V82F, I84V (4/10); M46I, L63P, V82F, I84V (3/10); and M46I, A71V, V82F, I84V (3/10). NL4(P37-538) represents resistant strains obtained by selection of HIV-1NL4-3 against the compound of Example 10 after 37 passages comprising protease genotype M46I, L63P, A71V, 184A. NL4(538/524) represents resistant strains obtained by selection of NL4(P22-538) against the compound of Example 5 after 24 passages comprising protease genotype M46I, L63P, A71V, 184A. NL4(538/P7-AG) represents a mixture of resistant strains obtained by selection of NL4(P22-538) against the compound of Example 12 after 7 passages comprising protease genotypes M46I, L63P, A71V, 184A; and V321, V82I. NL4(538/P24-AG) represents resistant strains obtained by selection of NL4(P22-538) against the compound of Example 12 after 24 passages comprising protease genotype M46I, L63P, A71V, 184A. NLA(P19-003) represents resistant strains obtained by selection of HIV-1^NL4-3 against the compound of Example 9 after 19 passages comprising protease genotype R8K, M46I. NL4(P34-003) represents resistant strains obtained by selection of HIV-1^NL4-3 against the compound of Example 9 after 34 passages comprising protease genotype R8K, M46I, L63P, A71V, L90M.
(§3) The viral isolate resistance results summarized in Tables 4-6 were generated according to the following assay procedure or minor modifications thereof. Assays are performed in 96-well tissue culture plates. […]

NL4(P37-538) = test: Viral isolate resistance assay per Markowitz et al., NL4(P37-538); assay type: cell-based, HIV-1
Source text: as §2
The viral isolate resistance results summarized in Tables 7-11 were generated according to the assay procedures described by Markowitz et al., Journal of Virology, vol. […]

HIV-1RF = test: CEM-T4 cell infection assay, reverse transcriptase readout, isolate RF; assay type: cell-based; conditions: Human immunodeficiency virus 1, CEM-T4, 168 h, Table 6, CEM-T4 cells, 7 days, read-out: Virus Isolate (EC50 ng/mL) RF
Source text: as §2, §3

[2] = tested on: RFR2 (RFR cloned by three rounds of limiting dilution); test: CEM-T4 cell infection assay, reverse transcriptase readout, resistant isolate RFR2; assay type: cell-based, HIV-1; conditions: Human immunodeficiency virus 1, 168 h, Table 6, CEM-T4 cells, 7 days, read-out: Virus Isolate (EC50 ng/mL) RFR2
Source text: as §2, §3

NL4(P22-538) = test: Viral isolate resistance assay per Markowitz et al., NL4(P22-538); assay type: cell-based, HIV-1; conditions: Human immunodeficiency virus 1, read-out: Virus Isolate (EC50 nM) NL4(P22-538)
Source text: as §2, with “NLA(P19-003) represents resistant strains obtained by selection of HIV-1^NL4-3 against the compound of Example 9 after 19 passages comprising protease genotype R8K, M46I. NL4(P34-003) represents resistant strains obtained by selection of HIV-1^NL4-3 against the compound of Example 9 after 34 passages comprising protease genotype R8K, M46I, L63P, A71V, L90M.” left out

NL4(538/524) = test: Viral isolate resistance assay per Markowitz et al., NL4(538/524); assay type: cell-based, HIV-1; conditions: Human immunodeficiency virus 1; Table 10; NL4(P22-538) selected against Example 5, 24 passages
Source text: as §2, with “NLA(P19-003) represents resistant strains obtained by selection of HIV-1^NL4-3 against the compound of Example 9 after 19 passages comprising protease genotype R8K, M46I. NL4(P34-003) represents resistant strains obtained by selection of HIV-1^NL4-3 against the compound of Example 9 after 34 passages comprising protease genotype R8K, M46I, L63P, A71V, L90M.” left out

NL4(538/P7-AG) = test: Viral isolate resistance assay per Markowitz et al., NL4(538/P7-AG); assay type: cell-based, HIV-1; conditions: Human immunodeficiency virus 1; Table 10; NL4(P22-538) selected against Example 12, 7 passages
Source text: as §2, with “NLA(P19-003) represents resistant strains obtained by selection of HIV-1^NL4-3 against the compound of Example 9 after 19 passages comprising protease genotype R8K, M46I. NL4(P34-003) represents resistant strains obtained by selection of HIV-1^NL4-3 against the compound of Example 9 after 34 passages comprising protease genotype R8K, M46I, L63P, A71V, L90M.” left out

NL4(538/P24-AG) = test: Viral isolate resistance assay per Markowitz et al., NL4(538/P24-AG); assay type: cell-based, HIV-1; conditions: Human immunodeficiency virus 1; Table 10; NL4(P22-538) selected against Example 12, 24 passages
Source text: as §2, with “NLA(P19-003) represents resistant strains obtained by selection of HIV-1^NL4-3 against the compound of Example 9 after 19 passages comprising protease genotype R8K, M46I. NL4(P34-003) represents resistant strains obtained by selection of HIV-1^NL4-3 against the compound of Example 9 after 34 passages comprising protease genotype R8K, M46I, L63P, A71V, L90M.” left out

[3] = Human immunodeficiency virus 1, read-out: Virus Isolate (EC50 nM) NL4(P37-538)

Row | Structure (SMILES) | EC90 (HIV-1NL4-3) | EC50 (HIV-1NL4-3; Table 9) | EC90 (NL4(I84V)) | EC50 [1] | EC50 (NL4(P37-538); [3]) | EC50 (HIV-1RF) | EC50 [2] | EC50 (NL4(P22-538)) | EC50 (NL4(538/524)) | EC50 (NL4(538/P7-AG)) | EC50 (HIV-1NL4-3; Table 8) | EC50 (NL4(P37-538); Human immunodeficiency virus 1, Table 9, selected against Example 10, 37 passages, read-out: Virus Isolate (EC50 nM) NL4(P37-538)) | EC50 (NL4(538/P24-AG))
1 | CC(C)CN(C[C@@H](O)[C@H](Cc1ccccc1)NC(=O)[C@@H](NC(=O)CN1CCCC1)C(C)(C)C)S(=O)(=O)c1ccc2c(c1)OCO2 [Example 14, N-[2R-hydroxy-3-[[(1,3-benzodioxol-5-yl)sulfonyl](2-methylpropyl)amino]-1S-(phenylmethyl)propyl]-2S-[[(pyrrolidin-1-yl)acetyl]amino]-3,3-dimethylbutanamide] | 8 nM | 60 nM | 72 nM | 39 ng/mL (≈ 60.5 nM) | 1000 nM | 1 ng/mL (≈ 1.55 nM) | 6 ng/mL (≈ 9.3 nM) |  |  |  |  |  | 
2 | CC(C)CN(C[C@@H](O)[C@H](Cc1ccccc1)NC(=O)[C@H](C)CS(C)(=O)=O)S(=O)(=O)c1ccc2c(c1)OCO2 [Example 15, N-[2R-hydroxy-3-[(2-methylpropyl)[(1,3-benzodioxol-5-yl)sulfonyl]amino]-1S-(phenylmethyl)propyl]2S-methyl-3-(methylsulfonyl)propanamide] | 60 nM | 8 nM |  | 21 ng/mL (≈ 36.9 nM) | 1000 nM | 5 ng/mL (≈ 8.79 nM) | 9 ng/mL (≈ 15.8 nM) | 400 nM |  |  |  |  | 
3 | CNCC(=O)N[C@H](C(=O)N[C@@H](Cc1ccccc1)[C@H](O)CN(CC(C)C)S(=O)(=O)c1ccc2c(c1)OCO2)C(C)(C)C [Example 16, 2S-[[(N-methylamino)acetyl]amino]-N-[2R-hydroxy-3-[[(1,3-benzodioxol-5-yl)sulfonyl](2-methylpropyl)amino]-1S-(phenylmethyl)propyl]-3.3-dimethylbutanamide] | 8 nM |  |  | 9 ng/mL (≈ 14.9 nM) |  | 3 ng/mL (≈ 4.96 nM) | 1 ng/mL (≈ 1.65 nM) |  | 40 nM | 40 nM | 8 nM | 40 nM | 40 nM
